Measurements taken from patent US9642941B2, “Implantable modular hydrogel for salivary gland restoration” (WILLIAM MARSH RICE UNIVERSITY, priority 2011, dated 2017).
Structures can show the parent of a compound that is named as a salt.

How the values were obtained:
HP = settings: read-out: Dissociation constant (Kd) of complex with HP; cited from earlier work
M3 muscarinic receptors = biological target: T1, M3 muscarinic receptors (Homo sapiens, UniProt P20309); assay: Intracellular calcium release (Fluo-4) in acini-like structures on 2.5D / in 3D HA hydrogels treated with acetylcholine; type: cell-based
T1 construct: Parotid gland tissue was collected from patients aged 40-55 years undergoing surgery; endogenous in cells; host or cells: primary acinar-like cells (passage 3-4) from patients' parotid gland tissue, on 2.5D or in 3D HA hydrogels
Method: Intracellular calcium [Cai] release studies utilized the calcium indicator dye, Fluo-4 (Invitrogen). Cells were seeded at 1×10^5 cells/gel in cell culture inserts as before. Cells on 2.5D and in 3D hydrogels were cultured for 12 days. Fluo-4 was suspended in 0.8% (w/v) pluronic acid and mixed with 8 mL of 1× Hanks' balanced salt solution (HBSS) without calcium. Cell-seeded hydrogels were incubated with Fluo-4 suspended in pluronic acid for 30 min at 37° C. After 30 min, cells were washed twice with 1×HBSS, and incubated for 30 min in HBSS. After loading and recovery, hydrogels were imaged using a Zeiss LSM 5-live high-speed confocal microscope. Baseline fluorescence was established for 30 sec at 488 nm. Cell-seeded hydrogels then were treated with various concentrations (ranging from 50 μM-500 μM) of the muscarinic agonist acetylcholine chloride. 2.5D hydrogels were flipped so that cells were on the bottom of the chamber slides. 50 μL of the agonist was added to the bottom of the chamber containing 50 μL medium. 3D hydrogels were suspended in 100 μL of medium and treated with 100 μL of agonist. Resulting increases in Cai levels were captured in a series of image scans and by graph plot.
To stimulate fluid secretion, salivary acinar-like cells were treated with acetylcholine. Addition of 50 μM acetylcholine induced a robust calcium response in self-assembling acini-like structures cultured on 2.5D hydrogels (FIG. 27A). Acini-like structures on hydrogels were imaged without saline buffer to minimize movement of hydrogels in the liquid. The calcium response peak seen at ˜5 min can be attributed to the diffusion time needed by the neurotransmitter to pass through the hydrogel to the cells. Treatment with 100 μM acetylcholine produced calcium oscillations lasting over 20 min in multiple cells within a self-assembled acinus-like structure (FIG. 27B). Oscillations from different structures varied in intensity. […] Experiments were performed three times with each agonist concentration, on separate hydrogel cultures. Data were recorded from 3-4 acini-like structures each time. […] Positive controls used a hypotonic solution to induce a calcium response.
Treatment with 50 μM acetylcholine induced calcium oscillations that lasted over 20 minutes in spheroid structures encapsulated in 3D hydrogels (FIG. 27D). […] Compared to the response seen among 2.5D cultures, the increase in [Ca^2+] was quicker in 3D, where cells responded to acetylcholine treatment within 30 seconds while cells in 2.5D took nearly 300 seconds. […] Thus, cell response to acetylcholine agonist in 3D was faster, more intense, and more prolonged than cell response in 2.5D.

β adrenergic receptors = assay: Exocytic granule production and α-amylase staining in salivary acinar-like cells on/in HA hydrogels; type: cell-based, human; settings: 50 μM
Method: Cells seeded (1×10^5 cells/gel) on/in hydrogels were treated with varying concentrations (10 μM to 100 μM) of isoproterenol hydrochloride (Santa Cruz Biotechnology) and norepinephrine hydrochloride (Sigma), each of which induce granule production and exocytosis, for various time points from 15 min-2 h. After treatment, culture medium was removed and cells were fixed immediately with 100% methanol and stained with α-amylase for microscopic analysis. Functionality of salivary acinar-like cells was assessed by response to neurotransmitter agonists. Norepinephrine binding to the β adrenergic receptors activates the protein secretion pathway. In this study, the sympathomimetic β adrenergic agonists, norepinephrine and isoproterenol, were used to stimulate protein production and exocytosis. Salivary acinar-like cells cultured on/in hydrogels were treated with 50 μM isoproterenol for 15 min to 1 hr. After treatment, cells were immediately fixed and stained, then analyzed for granule formation and α-amylase expression. FIGS. 21-25 quantify the extent of amylase response, using the intensity of fluorescence staining as a surrogate. […] Exocytosing granules stained in red for α-amylase are seen budding out from the cell membrane in FIG. 21C, E, F. Granule production has been quantified in FIG. 26. Upon stimulation, acini-like structures in 3D also secreted α-amylase into the hydrogel (FIG. 21E, F). α-Amylase staining is quantified in FIGS. 23-25.

[1] = tested on: spheroids in 3D HA hydrogels; assay: FGF7 treatment of spheroids in 3D HA hydrogels; type: cell-based, human; settings: 25 ng/mL FGF7 daily for 10 d and 12 d
Method: FIG. 14 is a picture depicting organized spheroids. […] (a) Untreated cells at 20 d culture. (b,c) Spheroids treated with 25 ng/mL FGF7 daily for (b) 10 d and (c) 12 d.
Functional neotissue glands must advance beyond spherical lumen to initiate directional delivery of secretory products and recreate the differentiated roles of fluid producing acinar and fluid resorbing ductal cells. Recent work identified the specific roles of FGF7 and FGF10 in inducing ductal elongation and branching, respectively. These roles are tied to the cells' perceived gradients of each GF from a point source, defined by diffusion through ECM and controlled by their binding to HS (in Pln and other proteoglycans). […] When delivered through media, FGF7 may induce overall larger spheroids (as expected, when FGF7 is not delivered from a directional point source). […] HGPs are an optimal mechanism for directional controlled delivery of FGF7 and FGF10.

T1 sequence (P20309 whole entry): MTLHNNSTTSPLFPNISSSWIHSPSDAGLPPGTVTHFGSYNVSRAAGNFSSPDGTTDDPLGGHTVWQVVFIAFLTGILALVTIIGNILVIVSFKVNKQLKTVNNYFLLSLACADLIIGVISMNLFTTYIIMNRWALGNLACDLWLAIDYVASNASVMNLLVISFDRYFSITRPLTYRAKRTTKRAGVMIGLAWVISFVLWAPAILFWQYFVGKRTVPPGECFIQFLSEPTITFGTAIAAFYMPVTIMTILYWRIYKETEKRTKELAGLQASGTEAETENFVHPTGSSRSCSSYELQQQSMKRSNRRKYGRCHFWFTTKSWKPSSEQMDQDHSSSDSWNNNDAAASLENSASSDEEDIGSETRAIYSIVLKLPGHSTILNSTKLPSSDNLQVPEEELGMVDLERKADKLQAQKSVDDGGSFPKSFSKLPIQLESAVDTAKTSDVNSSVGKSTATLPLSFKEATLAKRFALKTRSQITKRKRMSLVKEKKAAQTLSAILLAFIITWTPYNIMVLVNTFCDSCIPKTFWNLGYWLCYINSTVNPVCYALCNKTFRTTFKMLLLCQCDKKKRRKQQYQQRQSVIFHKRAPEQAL

For VEGF, the Kd (HP) is given as 165 nM.

With `CC(=O)OCC[N+](C)(C)C.[Cl-]` [ACh, acetylcholine chloride] the “Average Peak Height (Intensity)” value (M3 muscarinic receptors; 2.5D hydrogel, 50 μM ACh) was 58 ± 11, the “Average Peak Length” value (M3 muscarinic receptors; 2.5D hydrogel, 50 μM ACh) was 42 ± 21 s and the “Percent Responders” value (M3 muscarinic receptors; 2.5D hydrogel, 50 μM ACh) was 33%. The “Average Peak Height (Intensity)” value (M3 muscarinic receptors; 2.5D hydrogel, 100 μM ACh) was 10 ± 3, the “Average Peak Length” value (M3 muscarinic receptors; 2.5D hydrogel, 100 μM ACh) was 46 ± 9 s and the “Percent Responders” value (M3 muscarinic receptors; 2.5D hydrogel, 100 μM ACh) was 22%. For the same molecule, the “Time of calcium response peak” value (M3 muscarinic receptors; 2.5D hydrogels, 50 μM) was roughly 5 min, the “Duration of calcium oscillations” value (M3 muscarinic receptors; 2.5D hydrogels, 100 μM) was “over 20 min” and the Calcium oscillations (M3 muscarinic receptors; 3D cultures, 100 μM) was “induced similar oscillations”. The “Average Peak Height (Intensity)” value (M3 muscarinic receptors; 3D hydrogel, 50 μM ACh) was 39 ± 6, the “Average Peak Length” value (M3 muscarinic receptors; 3D hydrogel, 50 μM ACh) was 164 ± 8 s and the “Percent Responders” value (M3 muscarinic receptors; 3D hydrogel, 50 μM ACh) was 43%. The “Average Peak Height (Intensity)” value (M3 muscarinic receptors; 3D hydrogel, 100 μM ACh) was 14 ± 8, the “Average Peak Length” value (M3 muscarinic receptors; 3D hydrogel, 100 μM ACh) was 180 ± 34 s and the “Percent Responders” value (M3 muscarinic receptors; 3D hydrogel, 100 μM ACh) was 16%. For the same molecule, the “Duration of calcium oscillations” value (M3 muscarinic receptors; 3D hydrogels, 50 μM) was “over 20 minutes”, the “Time until cells responded with increase in [Ca2+]” value (M3 muscarinic receptors; cells in 2.5D) was roughly 300 s and the “Time until cells responded with increase in [Ca2+]” value (M3 muscarinic receptors; cells in 3D) was no more than 30 s.

In the case of `NC[C@H](O)c1ccc(O)c(O)c1` [norepinephrine, norepinephrine hydrochloride], the Secretory granules (β adrenergic receptors; 2.5D and 3D) is reported as “displayed multiple secretory granules”.

For `CC(C)NCC(O)c1ccc(O)c(O)c1` (stereo not drawn) [isoproterenol, isoproterenol hydrochloride], the α-Amylase localisation (β adrenergic receptors; 15 min) was “α-amylase near the membrane periphery” and the “Granule formation and α-amylase staining” value (β adrenergic receptors; 1 h, 2.5D and 3D) was “presence of granules and robust α-amylase staining”.

B1: FGF7: heparin-binding growth factor (protein, UniProt P21781 32-194, looked up)
Fibroblast growth factor 7: CNDMTPEQMATNVNCSSPERHTRSYDYMEGGDIRVRRLFCRTQWYLRIDKRGKVKGTQEMKNNYNIMEIRTVAVGIVAIKGVESEFYLAMNKEGKLYAKKECNEDCNFKELILENHYNTYASAKWTHNGGEMFVALNQKGIPVRGKKTKKEQKTAHFLPMAIT
For B1, the Spheroid size [1] is listed as “increases spheroid size” and the Kd (HP) is listed as 30 to 49 nM.
